Test results as given in article PMC5011342, “A high throughput drug screening assay to identify compounds that promote oligodendrocyte differentiation using acutely dissociated and purified oligodendrocyte precursor cells” (BMC Research Notes, 2016).
Where two headings read alike, the source gives them in different places.

What was measured:
[1] = system: acutely dissociated and purified rat OPCs; experiment: Acute OL differentiation assay (MBP expression/cell, immunofluorescent image quantification); type: cell-based
Procedure, shortened: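 Oligodendrocyte precursor cells were enriched from P6-P7 Sprague–Dawley rat brains by immunopanning (RAN-2 and GalC depletion, O4 selection), plated at 5000 cells/well in serum-free, mitogen-free differentiation media on PDL/laminin 96-well view plates, centrifuged at 200×g, and pre-incubated 1–2 h before test compounds were added in quadruplicate. On DIV4, cells were fixed, stained for MBP and DAPI, imaged automatically, and MBP expression per cell was quantified.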

expanded OPCs = experiment: cells; conditions: for 0.1 µM (% DMSO) / 1 µM (% DMSO) / 10 µM (% DMSO): alamarBlue viability of expanded OPCs; for 0.1 µM (% DMSO): compound at 0.1 µM; for 1 µM (% DMSO): compound at 1 µM; for 10 µM (% DMSO): compound at 10 µM; for viability at 0.1 µM / viability at 1 µM / viability at 10 µM: Rattus norvegicus, 72 h
Procedure, shortened: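 Expanded OPCs seeded at 10,000 cells/well in differentiation media, then exposed to NCC library compounds at 10, 1 and 0.1 µM (quadruplicate, 0.1% DMSO) for three days. Viability read as alamarBlue fluorescence (560/590 nm) after 4 h at 37 °C; tunicamycin 5 ng/ml served as toxicity control.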

[2] = Rattus norvegicus, test compound at 2 uM, NCC library screen, sheet "All OLga data", relative to quetiapine, read-out: 2 uM (% Quet)
[3] = read-out: 0.1 µM (% DMSO), alamarBlue viability, NCC library compound at 0.1 µM, sheet "All Tox data"
[4] = read-out: 1 µM (% DMSO), alamarBlue viability, NCC library compound at 1 µM, sheet "All Tox data"
[5] = read-out: 10 µM (% DMSO), alamarBlue viability, NCC library compound at 10 µM, sheet "All Tox data"
[6] = Rattus norvegicus, test compound at 10 uM, NCC library screen, sheet "All OLga data", relative to quetiapine, read-out: 10 uM (% Quet)
[7] = Rattus norvegicus, 0.4 uM test compound, relative to quetiapine, sheet "All OLga data", read-out: OL differentiation, 0.4 uM (% Quet)
[8] = Rattus norvegicus, 2 uM test compound, relative to quetiapine, sheet "All OLga data", read-out: OL differentiation, 2 uM (% Quet)
[9] = read-out: 0.1 µM (% DMSO), alamarBlue viability of expanded OPCs, compound at 0.1 µM, sheet All Tox data
[10] = read-out: 1 µM (% DMSO), alamarBlue viability of expanded OPCs, compound at 1 µM, sheet All Tox data
[11] = read-out: 10 µM (% DMSO), alamarBlue viability of expanded OPCs, compound at 10 µM, sheet All Tox data
[12] = Rattus norvegicus, 10 uM test compound, relative to quetiapine, sheet "All OLga data", read-out: OL differentiation, 10 uM (% Quet)
[13] = Rattus norvegicus, test compound at 2 uM, MBP expression relative to quetiapine, NCC library screen, sheet "All OLga data", read-out: 2 uM (% Quet)
[14] = Rattus norvegicus, test compound at 10 uM, MBP expression relative to quetiapine, NCC library screen, sheet "All OLga data", read-out: 10 uM (% Quet)

| Compound | activation at 2 µM [1, 2] [%] | viability at 0.1 µM (expanded OPCs; [3]) [%] | viability at 1 µM (expanded OPCs; [4]) [%] | viability at 10 µM (expanded OPCs; [5]) [%] | activation at 10 µM [1, 6] [%] | activation at 2 µM [1, 8] [%] | viability at 0.1 µM (expanded OPCs; [9]) [%] | viability at 1 µM (expanded OPCs; [10]) [%] | viability at 10 µM (expanded OPCs; [11]) [%] | 0.1 µM (% DMSO) (expanded OPCs; relative to DMSO control) | 1 µM (% DMSO) (expanded OPCs; relative to DMSO control) | 10 µM (% DMSO) (expanded OPCs; relative to DMSO control) | further results |
| --- | --- | --- | --- | --- | --- | --- | --- | --- | --- | --- | --- | --- | --- |
| Cl.FC(F)(F)c1cccc(N2CCNCC2)c1 |  |  |  |  |  |  |  |  |  |  |  |  | OL differentiation, 2 uM (% Quet) ([1]; 2 uM test compound, relative to quetiapine, sheet "All OLga data"): 23.8 % Quet; OL differentiation, 10 uM (% Quet) ([1]; 10 uM test compound, relative to quetiapine, sheet "All OLga data"): 20.8 % Quet; 0.1 µM (% DMSO) (expanded OPCs; sheet All Tox data): 91.5 % DMSO; 1 µM (% DMSO) (expanded OPCs; sheet All Tox data): 101.9 % DMSO; 10 µM (% DMSO) (expanded OPCs; sheet All Tox data): 76.4 % DMSO |
| CC#C[C@]1(O)CC[C@H]2[C@@H]3CCC4=CC(=O)CCC4=C3[C@@H](c3ccc(N(C)C)cc3)C[C@@]21C [Mifepristone] | -139 | 84.5 | 71.3 | 26.4 |  |  |  |  |  |  |  |  | activation at 0.4 µM ([1]; Rattus norvegicus, test compound at 0.4 uM, NCC library screen, sheet "All OLga data", relative to quetiapine, read-out: 0.4 uM (% Quet)): -2.7% |
| Nc1nc(N)c2nc(-c3ccccc3)c(N)nc2n1 [Triamterene] | 0.9 | 94.9 | 96.5 | 95.3 | -18.8 |  |  |  |  |  |  |  |  |
| C#C[C@]1(O)CC[C@H]2[C@@H]3CCc4cc(O)ccc4[C@H]3CC[C@@]21C [Ethinyl Estradiol] |  |  |  |  |  | -2.6 | 81 | 88 | 43.9 |  |  |  | activation at 0.4 µM [1, 7]: 7.3% |
| NC(N)=Nc1nc(CSCCC(N)=NS(N)(=O)=O)cs1 [Famotidine] |  |  |  |  |  | -2.2 | 92.3 | 96.4 | 102 |  |  |  | activation at 10 µM [1, 12]: 17.8% |
| CNS(=O)(=O)Cc1ccc2[nH]cc(CCN(C)C)c2c1 [Sumatriptan] |  | 95.1 | 98.2 | 92.1 |  | 69.1 |  |  |  |  |  |  | activation at 10 µM [1, 12]: 84.6% |
| C=CCN1CC[C@]23c4c5ccc(O)c4O[C@H]2C(=O)CC[C@@]3(O)[C@H]1C5 [Naloxone] | -2.8 | 94.2 | 90.1 | 85.6 | -10.8 |  |  |  |  |  |  |  |  |
| Cn1cnc([N+](=O)[O-])c1Sc1ncnc2nc[nH]c12 [Azathioprine] |  |  |  |  |  |  |  |  |  | 90.4 | 91.6 | 63.6 | activation at 2 µM [1, 13]: -21.2%; activation at 10 µM [1, 14]: -94.3% |
| CCCCc1nc(Cl)c(CO)n1Cc1ccc(-c2ccccc2-c2nn[nH]n2)cc1 [Losartan] |  |  |  |  |  | 5.2 | 97.6 | 91.6 | 102 |  |  |  | activation at 10 µM [1, 12]: -7.3% |
| CC1=C(CC(=O)O)c2cc(F)ccc2/C1=C\c1ccc([S+](C)[O-])cc1 (stereo not shown) [Sulindac] | 0.6 |  |  |  | -11.2 |  |  |  |  | 90.8 | 94.4 | 90.3 |  |
| NC[C@H](O)c1ccc(O)c(O)c1 [Norepinephrine] |  |  |  |  |  |  |  |  |  | 99.4 | 99.0 | 68.5 | activation at 2 µM [1, 13]: -1.9%; activation at 10 µM [1, 14]: -78% |
| CCOC(=O)C1(c2ccccc2)CCN(CCC(C#N)(c2ccccc2)c2ccccc2)CC1 [Diphenoxylate] |  | 85.6 | 27.7 | 23.2 |  |  |  |  |  |  |  |  | activation at 0.08 µM ([1]; Rattus norvegicus, 0.08 uM test compound, relative to quetiapine, sheet "All OLga data", read-out: OL differentiation, 0.08 uM (% Quet)): -3.7%; activation at 0.4 µM [1, 7]: 12% |
| CC(=O)/N=c1/sc(S(N)(=O)=O)nn1C [Methazolamide] |  |  |  |  |  |  |  |  |  | 90.9 | 92.5 | 88.3 | activation at 2 µM [1, 13]: -29%; activation at 10 µM [1, 14]: -40% |
| NS(=O)(=O)c1cc2c(cc1C(F)(F)F)NC(Cc1ccccc1)NS2(=O)=O (stereo not shown) [Bendroflumethiazide] |  |  |  |  |  |  |  |  |  | 95.4 | 93.1 | 98.5 | activation at 2 µM [1, 13]: -41.7%; activation at 10 µM [1, 14]: -47.6% |
| CN(Cc1cnc2nc(N)nc(N)c2n1)c1ccc(C(=O)N[C@@H](CCC(=O)O)C(=O)O)cc1 [Methotrexate] |  |  |  |  |  | 4.9 | 77.9 | 68.5 | 52.8 |  |  |  | activation at 0.4 µM [1, 7]: -11% |
| CN1C2CCCC1CC(NC(=O)c1nn(C)c3ccccc13)C2 (stereo not shown) [Granisetron] | -25.3 | 84.1 | 87.1 | 72.4 | -23.7 |  |  |  |  |  |  |  |  |
| COc1ccccc1OCCNCC(O)COc1cccc2[nH]c3ccccc3c12 (stereo not shown) [Carvedilol] |  |  |  |  |  | -95.9 | 101 | 54.5 | 12 |  |  |  | activation at 0.4 µM [1, 7]: -16.1% |
| COc1ccc(C(CN(C)C)C2(O)CCCCC2)cc1 (stereo not shown) [Venlafaxine] |  |  |  |  |  | 4 | 89.1 | 85.2 | 76.7 |  |  |  | activation at 10 µM [1, 12]: -26% |
| COc1cc2nc(N3CCN(C(=O)C4CCCO4)CC3)nc(N)c2cc1OC (stereo not shown) [Terazosin] |  |  |  |  |  | -2.4 | 81.1 | 80.8 | 78.7 | 93.3 | 94.6 | 74.1 | activation at 10 µM [1, 12]: 8.7%; activation at 2 µM [1, 13]: -10.8%; activation at 10 µM [1, 14]: -37.2% |
| CN[C@@H]1[C@H](O)[C@H](NC)[C@H]2O[C@@]3(O)C(=O)C[C@@H](C)O[C@H]3O[C@@H]2[C@H]1O [Spectinomycin] | 7.7 |  |  |  | 18.9 |  |  |  |  | 91.8 | 87.7 | 83.6 |  |
| O=C1[C@H]2CCCC[C@H]2C(=O)N1CCCCN1CCN(c2nsc3ccccc23)CC1 [Perospirone, reference compound] |  |  |  |  |  | 84.5 | 110 | 164 | 132 |  |  |  | activation at 10 µM [1, 12]: 18.7%; EC50 ([1]; Rattus norvegicus, average EC50 for induction of OL differentiation from independent biological replicates, eight concentrations): 100 nM; hit in OL differentiation assay, MRF-TMC ([1]; ● = confirmed hit in this paper's assay): ● |
| CC(C(=O)O)c1ccc(-c2ccccc2)c(F)c1 (stereo not shown) [Flurbiprofen] | 1.8 | 91.1 | 88.1 | 89.4 | -6.1 | -3.6 | 95.9 | 103 | 91.2 |  |  |  | activation at 10 µM [1, 12]: 24.6% |
| C[C@H](CS)C(=O)N1CCC[C@H]1C(=O)O [Captopril] | 8 | 90.7 | 93.2 | 99.1 | 8.4 |  |  |  |  |  |  |  |  |
| C[C@H]1C[C@@H]2[C@H]([C@@H](O)C[C@@]3(C)[C@H]2CC[C@]3(O)C(=O)CO)[C@@]2(C)C=CC(=O)C=C12 [Methylprednisolone] |  |  |  |  |  |  |  |  |  | 115.7 | 111.5 | 102.3 | activation at 2 µM [1, 13]: -2.6%; activation at 10 µM [1, 14]: -32.2% |
| CNC[C@H](O)c1ccc(O)c(O)c1 [Epinephrine] |  |  |  |  |  |  |  |  |  | 101.9 | 92.7 | 81.7 | activation at 2 µM [1, 13]: -7.6%; activation at 10 µM [1, 14]: -15% |
| CC1(C)O[C@@H]2C[C@H]3[C@@H]4CCC5=CC(=O)C=C[C@]5(C)[C@@]4(F)[C@@H](O)C[C@]3(C)[C@]2(C(=O)CO)O1 [Triamcinolone Acetonide] | -1.9 | 133 | 127 | 127 | 1.9 |  |  |  |  |  |  |  |  |
